Source: patent publication US11332438B2, “Creatine prodrugs, compositions and methods of use thereof” (Ultragenyx Pharmaceutical Inc., priority 2017, dated 2022)

Key:
creatine transporter = target: T1, creatine transporter (Rattus norvegicus, UniProt P28570); test: Co-administration with creatine transporter blocker beta-guanidinopropionic acid (GPA), d3-Cr in WT rat brain; format: in vivo
T1 construct: from tissue; host or cells: WT rat, in vivo (brain / blood-brain barrier)
T1 sequence (P28570 1-635): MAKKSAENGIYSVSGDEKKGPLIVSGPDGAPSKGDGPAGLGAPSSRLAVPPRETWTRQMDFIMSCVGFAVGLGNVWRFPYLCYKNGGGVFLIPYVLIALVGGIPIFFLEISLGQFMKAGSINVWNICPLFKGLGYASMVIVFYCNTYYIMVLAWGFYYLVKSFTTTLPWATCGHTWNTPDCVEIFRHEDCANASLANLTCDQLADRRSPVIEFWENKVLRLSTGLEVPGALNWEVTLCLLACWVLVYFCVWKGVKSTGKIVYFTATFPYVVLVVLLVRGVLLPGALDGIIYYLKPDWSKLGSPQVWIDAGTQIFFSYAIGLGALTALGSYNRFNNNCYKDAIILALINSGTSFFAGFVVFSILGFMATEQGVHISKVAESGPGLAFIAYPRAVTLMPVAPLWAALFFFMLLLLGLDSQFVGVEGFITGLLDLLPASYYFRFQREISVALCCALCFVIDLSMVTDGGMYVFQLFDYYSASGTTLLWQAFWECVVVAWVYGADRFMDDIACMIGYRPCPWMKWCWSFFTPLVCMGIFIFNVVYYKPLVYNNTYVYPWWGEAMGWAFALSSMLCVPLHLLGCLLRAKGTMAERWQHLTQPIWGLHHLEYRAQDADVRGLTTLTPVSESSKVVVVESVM

[1] = Prodrug cleavage in human brain homogenates (HBH): d3-Cr release and d3-Crn cyclization; format: in vitro ADME; settings: in vitro cleavage assays (Table 3A)
Outline: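 d3-labelled prodrugs (20 and 200 μM final) incubated with FAAH-preserving human brain homogenate (~3-4 mg) or rFAAH plus 1 mM NADPH; controls without enzyme, heat-inactivated enzyme, or 1 μM FAAH inhibitor […]. LC-MS/MS of d3-Cr and d3-Crn at 3 h, each expressed as percent of 200 μM input, net of control for d3-Cr.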

[2] = Chemical stability in simulated intestinal fluid (SIF) without pancreatin; format: physicochemical; settings: Table 2A, 50 μM prodrug
Experimental: Chemical stability of creatine prodrugs in phosphate buffered saline (PBS), simulated intestinal fluid (SIF) without pancreatin, simulated gastric fluid (SGF) without pepsin were determined by LC-UV, LC-CAD, LC-UV-CAD or LC-MS/MS as appropriate. Creatine prodrugs of the present disclosure (50 μM) were incubated at 37° C. according to described protocols and prodrug levels were compared between t=0, t=15, t=60, and t=120 mins by peak area ratio to determine the percentage remained at t=120 mins (2 h).
Protocol for PBS, SIF and SGF stability for screening:
Prodrugs (50 μM) were incubated in PBS, FaSSIF (Biorelevant) or FaSSGF (Biorelevant) at 37° C.

In the case of `Cl.[2H]C([2H])([2H])N(CC(=O)OCC)C(=N)NC(=O)CCCCCCCCCC` [Compound 8], the “levels of d3-Cr in WT rat brains with co-administration of GPA compared to dosing alone” value (creatine transporter) is reported as “did not change”, the “d3-Crn (creatinine) cyclization in vitro (in words)” value [1] is reported as “predominantly creatinine cyclization” and the “d3-Crn (creatinine) cyclization in vitro (in words)” value ([1]; listed as Compound 8) is reported as “predominantly cyclized into creatinine”. For the same compound, the “Chemical Stability SIF, no enzyme % T0 at 2 hours at 37 °C.” value [2] was 17%.
